Measurements from patent US20250163066A1, “PROTACs of MALT1” (TEGID THERAPEUTICS, INC., priority 2022, published 2025).

Key:
[1] = system: IL-2 MALT1-dependent release in Jurkat cells; assay: cells; assay type: cell-based; conditions: Homo sapiens; Jurkat cells stimulated with antiCD3/antiCD28 for 24 h; IL-2 ELISA; read-out: EC50, IL-2 MALT1-dependent release inhibition
Method: Jurkat cells (ATCC, USA) (100,000 cells/well in a 96 well flat-bottom plate (Greiner, #655061) were cultured in RPMI 1640 supplemented with 10% FBS at 37° C., 5% CO2 in a humidified cell culture incubator for 0.5-1 h. Then 10 μl/well 15× compound (or DMSO) was added in duplicates. Cells were incubated with compound in a humidified cell culture incubator for 0.5-1 h. After the incubation, 10 μl/well of 15× human antiCD3 HIT3a antibody (BioLegend) together with 10 μl/well of 15× human antiCD28 antibody (Invitrogen) were added to stimulate Jurkat cells for 24 h. After 24 h of stimulation, supernatants were collected and IL-2 levels in supernatants were assessed using IL-2 ELISA kit (Vector-Best, Russia).

[2] = target: MALT1 (Homo sapiens (Human), UniProt Q9UDY8); assay: MALT1 enzymatic activity inhibition (fluorescence, Ac-LRSR-AMC substrate); assay type: biochemical; conditions: recombinant MALT1 1.5 ng/μl, Ac-LRSR-AMC 1 μM
MALT1, sequence (Q9UDY8 whole entry): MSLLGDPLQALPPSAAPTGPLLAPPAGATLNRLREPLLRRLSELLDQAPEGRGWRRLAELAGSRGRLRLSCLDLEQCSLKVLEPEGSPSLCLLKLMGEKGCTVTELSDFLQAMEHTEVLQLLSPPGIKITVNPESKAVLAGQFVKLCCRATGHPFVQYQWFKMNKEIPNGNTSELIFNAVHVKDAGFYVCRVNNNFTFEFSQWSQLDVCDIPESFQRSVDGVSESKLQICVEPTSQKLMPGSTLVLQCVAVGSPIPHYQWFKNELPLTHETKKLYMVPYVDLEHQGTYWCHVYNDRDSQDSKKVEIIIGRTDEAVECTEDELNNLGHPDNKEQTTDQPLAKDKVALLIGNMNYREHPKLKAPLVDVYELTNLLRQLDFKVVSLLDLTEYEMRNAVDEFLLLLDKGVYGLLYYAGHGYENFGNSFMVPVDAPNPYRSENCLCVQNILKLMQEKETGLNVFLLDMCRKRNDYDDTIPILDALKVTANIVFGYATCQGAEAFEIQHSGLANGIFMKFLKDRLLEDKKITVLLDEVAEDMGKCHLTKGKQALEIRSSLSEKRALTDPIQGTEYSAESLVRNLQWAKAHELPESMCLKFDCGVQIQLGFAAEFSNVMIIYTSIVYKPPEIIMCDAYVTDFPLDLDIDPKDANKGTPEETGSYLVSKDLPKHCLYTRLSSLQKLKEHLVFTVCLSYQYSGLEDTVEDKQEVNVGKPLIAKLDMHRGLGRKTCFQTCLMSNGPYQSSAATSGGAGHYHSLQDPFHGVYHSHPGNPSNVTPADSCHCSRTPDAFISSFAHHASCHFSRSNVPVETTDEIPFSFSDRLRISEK
How it was run: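 Recombinant human MALT1 (1.5 ng/μl final) preincubated 10 min at rt with compounds in 50 mM HEPES pH 7.2-7.4, 100 mM NaCl, 900 mM sodium citrate, 10 mM DTT; 1 μM Ac-LRSR-AMC then added. AMC fluorescence read at start and after 30 min 37 °C plus 30 min rt; difference gives signal, % inhibition fitted to IC50.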

EC50 [1] [nM]	EC50 [2] [µM]	Compound
< 500	≤ 0.2	O=C1CCC(N2Cc3cc(N4CCN(C(=O)CCCCCc5nc(-c6ncc(NC(=O)Nc7cnc8ccnn8c7C7CCCC7)cc6Cl)no5)CC4)ccc3C2=O)C(=O)N1 (stereo not shown) [Compound 3, 1-[5-chloro-6-[5-[6-[4-[2-(2,6-dioxo-3-piperidyl)-1-oxo-isoindolin-5-yl]piperazin-1-yl]-6-oxo-hexyl]-1,2,4-oxadiazol-3-yl]-3-pyridyl]-3-(7-cyclopentylpyrazolo[1,5-a]pyrimidin-6-yl)urea]
500 to 1000	0.2 to 0.5	Cc1cc(NC(=O)Nc2cnc3ccnn3c2C2CCCC2)cnc1-c1noc(CC(C)(C)CC(=O)N2CCN(c3ccc4c(c3)CN(C3CCC(=O)NC3=O)C4=O)CC2)n1 (stereo not shown) [Compound 10, 1-(7-cyclopentylpyrazolo[1,5-a]pyrimidin-6-yl)-3-[6-[5-[4-[4-[2-(2,6-dioxo-3-piperidyl)-1-oxo-isoindolin-5-yl]piperazin-1-yl]-2,2-dimethyl-4-oxo-butyl]-1,2,4-oxadiazol-3-yl]-5-methyl-3-pyridyl]urea]
1000 to 5000	≤ 0.2	Cc1cc(NC(=O)Nc2cnc3ccnn3c2C2CCCC2)cnc1-c1noc(CCCC(=O)N2CCN(c3ccc4c(c3)CN(C3CCC(=O)NC3=O)C4=O)CC2)n1 (stereo not shown) [Compound 12, 1-(7-cyclopentylpyrazolo[1,5-a]pyrimidin-6-yl)-3-[6-[5-[4-[4-[2-(2,6-dioxo-3-piperidyl)-1-oxo-isoindolin-5-yl]piperazin-1-yl]-4-oxo-butyl]-1,2,4-oxadiazol-3-yl]-5-methyl-3-pyridyl]urea]
–	1 to 5	O=C1CCC(N2Cc3cc(N4CCN(C(=O)CCCCn5cc(NC(=O)Nc6cnc7ccnn7c6C6CCCC6)c(C(F)(F)F)n5)CC4)ccc3C2=O)C(=O)N1 (stereo not shown) [Compound 151, 1-(7-cyclopentylpyrazolo[1,5-a]pyrimidin-6-yl)-3-[1-[5-[4-[2-(2,6-dioxo-3-piperidyl)-1-oxo-isoindolin-5-yl]piperazin-1-yl]-5-oxo-pentyl]-3-(trifluoromethyl)pyrazol-4-yl]urea]
–	1 to 5	O=C1CCC(N2Cc3cc(N4CCN(C(=O)CCCCn5cc(NC(=O)Nc6cnc7ccnn7c6C6CCC6)c(C(F)(F)F)n5)CC4)ccc3C2=O)C(=O)N1 (stereo not shown) [Compound 152, 1-(7-cyclobutylpyrazolo[1,5-a]pyrimidin-6-yl)-3-[1-[5-[4-[2-(2,6-dioxo-3-piperidyl)-1-oxo-isoindolin-5-yl]piperazin-1-yl]-5-oxo-pentyl]-3-(trifluoromethyl)pyrazol-4-yl]urea]
–	0.2 to 0.5	Cc1cc(NC(=O)Nc2cnc3ccnn3c2C(C)C)cnc1-c1nnc(CCCCCC(=O)N2CCN(c3ccc4c(c3)CN(C3CCC(=O)NC3=O)C4=O)CC2)s1 (stereo not shown) [Compound 153, 1-[6-[5-[6-[4-[2-(2,6-dioxo-3-piperidyl)-1-oxo-isoindolin-5-yl]piperazin-1-yl]-6-oxo-hexyl]-1,3,4-thiadiazol-2-yl]-5-methyl-3-pyridyl]-3-(7-isopropylpyrazolo[1,5-a]pyrimidin-6-yl)urea]
–	0.2 to 0.5	Cc1cc(NC(=O)Nc2cnc3ccnn3c2C(C)C)cnc1-c1nnc(CCCCC(=O)N2CCN(c3ccc4c(c3)CN(C3CCC(=O)NC3=O)C4=O)CC2)s1 (stereo not shown) [Compound 154, 1-[6-[5-[5-[4-[2-(2,6-dioxo-3-piperidyl)-1-oxo-isoindolin-5-yl]piperazin-1-yl]-5-oxo-pentyl]-1,3,4-thiadiazol-2-yl]-5-methyl-3-pyridyl]-3-(7-isopropylpyrazolo[1,5-a]pyrimidin-6-yl)urea]
–	> 5	O=C1CCC(N2Cc3cc(N4CCN(C(=O)CCCCn5cc(NC(=O)Nc6cnc7ccnn7c6C6CCCO6)c(C(F)(F)F)n5)CC4)ccc3C2=O)C(=O)N1 (stereo not shown) [Compound 155, 1-[1-[5-[4-[2-(2,6-dioxo-3-piperidyl)-1-oxo-isoindolin-5-yl]piperazin-1-yl]-5-oxo-pentyl]-3-(trifluoromethyl)pyrazol-4-yl]-3-(7-tetrahydrofuran-2-ylpyrazolo[1,5-a]pyrimidin-6-yl)urea]
–	> 5	O=C1CCC(N2Cc3cc(N4CCN(CCCCCn5cc(NC(=O)Nc6cnc7ccnn7c6C6CCC6)c(C(F)(F)F)n5)CC4)ccc3C2=O)C(=O)N1 (stereo not shown) [Compound 156, 1-(7-cyclobutylpyrazolo[1,5-a]pyrimidin-6-yl)-3-[1-[5-[4-[2-(2,6-dioxo-3-piperidyl)-1-oxo-isoindolin-5-yl]piperazin-1-yl]pentyl]-3-(trifluoromethyl)pyrazol-4-yl]urea]
–	> 5	CC(C)c1c(NC(=O)Nc2cn(CCCCC(=O)N3CCN(c4ccc5c(c4)CN(C4CCC(=O)NC4=O)C5=O)CC3)nc2C(F)(F)F)cnc2ccnn12 (stereo not shown) [Compound 157, 1-[1-[5-[4-[2-(2,6-dioxo-3-piperidyl)-1-oxo-isoindolin-5-yl]piperazin-1-yl]-5-oxo-pentyl]-3-(trifluoromethyl)pyrazol-4-yl]-3-(7-isopropylpyrazolo[1,5-a]pyrimidin-6-yl)urea]
–	≤ 0.2	O=C1CCC(N2Cc3cc(N4CCN(C(=O)CCCCCc5nc(-c6ncc(NC(=O)Nc7cnc8ccnn8c7C7CC7)cc6Cl)no5)CC4)ccc3C2=O)C(=O)N1 (stereo not shown) [Compound 158, 1-[5-chloro-6-[5-[6-[4-[2-(2,6-dioxo-3-piperidyl)-1-oxo-isoindolin-5-yl]piperazin-1-yl]-6-oxo-hexyl]-1,2,4-oxadiazol-3-yl]-3-pyridyl]-3-(7-cyclopropylpyrazolo[1,5-a]pyrimidin-6-yl)urea]
–	≤ 0.2	O=C1CCC(N2Cc3cc(N4CCN(CCCCCCc5nc(-c6ncc(NC(=O)Nc7cnc8ccnn8c7C7CC7)cc6Cl)no5)CC4)ccc3C2=O)C(=O)N1 (stereo not shown) [Compound 159, 1-[5-chloro-6-[5-[6-[4-[2-(2,6-dioxo-3-piperidyl)-1-oxo-isoindolin-5-yl]piperazin-1-yl]hexyl]-1,2,4-oxadiazol-3-yl]-3-pyridyl]-3-(7-cyclopropylpyrazolo[1,5-a]pyrimidin-6-yl)urea]
–	≤ 0.2	O=C1CCC(N2Cc3cc(N4CCN(C(=O)CCCCc5nc(-c6ncc(NC(=O)Nc7cnc8ccnn8c7C7CC7)cc6Cl)no5)CC4)ccc3C2=O)C(=O)N1 (stereo not shown) [Compound 160, 1-[5-chloro-6-[5-[5-[4-[2-(2,6-dioxo-3-piperidyl)-1-oxo-isoindolin-5-yl]piperazin-1-yl]-5-oxo-pentyl]-1,2,4-oxadiazol-3-yl]-3-pyridyl]-3-(7-cyclopropylpyrazolo[1,5-a]pyrimidin-6-yl)urea]
–	≤ 0.2	O=C1CCC(N2Cc3cc(N4CCN(CCCCCc5nc(-c6ncc(NC(=O)Nc7cnc8ccnn8c7C7CC7)cc6Cl)no5)CC4)ccc3C2=O)C(=O)N1 (stereo not shown) [Compound 161, 1-[5-chloro-6-[5-[5-[4-[2-(2,6-dioxo-3-piperidyl)-1-oxo-isoindolin-5-yl]piperazin-1-yl]pentyl]-1,2,4-oxadiazol-3-yl]-3-pyridyl]-3-(7-cyclopropylpyrazolo[1,5-a]pyrimidin-6-yl)urea]
–	≤ 0.2	CC(C)c1c(NC(=O)Nc2cnc(-c3noc(CCCCCC(=O)N4CCN(c5ccc6c(c5)CN(C5CCC(=O)NC5=O)C6=O)CC4)n3)c(C(F)(F)F)c2)cnc2ccnn12 (stereo not shown) [Compound 162, 1-[6-[5-[6-[4-[2-(2,6-dioxo-3-piperidyl)-1-oxo-isoindolin-5-yl]piperazin-1-yl]-6-oxo-hexyl]-1,2,4-oxadiazol-3-yl]-5-(trifluoromethyl)-3-pyridyl]-3-(7-isopropylpyrazolo[1,5-a]pyrimidin-6-yl)urea]
–	> 5	Cc1nn(CCCCC(=O)N2CCN(c3ccc4c(c3)CN(C3CCC(=O)NC3=O)C4=O)CC2)cc1NC(=O)Nc1cnc2ccnn2c1C(C)C (stereo not shown) [Compound 164, 1-[1-[5-[4-[2-(2,6-dioxo-3-piperidyl)-1-oxo-isoindolin-5-yl]piperazin-1-yl]-5-oxo-pentyl]-3-methyl-pyrazol-4-yl]-3-(7-isopropylpyrazolo[1,5-a]pyrimidin-6-yl)urea]
–	≤ 0.2	O=C1CCC(N2Cc3cc(N4CCN(C(=O)CCCc5nc(-c6ncc(NC(=O)Nc7cnc8ccnn8c7C7CC7)cc6Cl)no5)CC4)ccc3C2=O)C(=O)N1 (stereo not shown) [Compound 165, 1-[5-chloro-6-[5-[4-[4-[2-(2,6-dioxo-3-piperidyl)-1-oxo-isoindolin-5-yl]piperazin-1-yl]-4-oxo-butyl]-1,2,4-oxadiazol-3-yl]-3-pyridyl]-3-(7-cyclopropylpyrazolo[1,5-a]pyrimidin-6-yl)urea]
–	≤ 0.2	O=C1CCC(N2Cc3cc(N4CCN(CCCCc5nc(-c6ncc(NC(=O)Nc7cnc8ccnn8c7C7CC7)cc6Cl)no5)CC4)ccc3C2=O)C(=O)N1 (stereo not shown) [Compound 166, 1-[5-chloro-6-[5-[4-[4-[2-(2,6-dioxo-3-piperidyl)-1-oxo-isoindolin-5-yl]piperazin-1-yl]butyl]-1,2,4-oxadiazol-3-yl]-3-pyridyl]-3-(7-cyclopropylpyrazolo[1,5-a]pyrimidin-6-yl)urea]
–	≤ 0.2	Cc1cc(NC(=O)Nc2cnc3ccnn3c2C2CC2)cnc1-c1noc(CCCCC(=O)N2CCN(c3ccc4c(c3)CN(C3CCC(=O)NC3=O)C4=O)CC2)n1 (stereo not shown) [Compound 169, 1-(7-cyclopropylpyrazolo[1,5-a]pyrimidin-6-yl)-3-[6-[5-[5-[4-[2-(2,6-dioxo-3-piperidyl)-1-oxo-isoindolin-5-yl]piperazin-1-yl]-5-oxo-pentyl]-1,2,4-oxadiazol-3-yl]-5-methyl-3-pyridyl]urea]
